Data set [1] in a line: UV–vis absorption and fluorescence spectroscopy. Format: physicochemical. The note with it: 10% DMSO; for λmax abs: 10-15 μM.
In data set [2] the test system is Capan-1 cells. Nature of the data set: Cellular uptake in Capan-1 cells. The note with it: within 30 min of application. The format is cell-based, human.
A further data set deals with healthy CD-1 mice. Nature of the data set: In vivo biodistribution imaging in healthy mice. The note with it: for pancreas specificity / accumulation: systemic administration. Also noted: species or system mouse.
A short description of data set [3]: Cell viability by Cell Titer-Blue assay. Format: cell-based. Particulars: human, Capan-1 cells. Background: Alamar Blue is a resazurin reagent that responds to reducing activity.
Data set [4] relates to Capan-1 cells. Nature of the data set: Subcellular colocalization, live cell imaging. Format: cell-based, human. The note with it: 0.5 μM, 1 h incubation.
For data set [5], the system named is pancreas tissue derived from healthy and PDAC mice. The data set is described as follows: Ex vivo staining of pancreas tissue from healthy and PDAC mice. The note with it: PDAC mouse pancreas tissue slides.
Data set [6] has as its system genetically modified PDAC mice. The data set is described as follows: In vivo biodistribution and ex vivo pathology in PDAC tumor-bearing mice. Also noted: species or system mouse. Particulars: 100 nmol systemic, 1.5 h.
The mark [7] stands for this setting: acidic solution pH 1.9, 12.5 mM HCl.

Entries after “also recorded” stand apart in the source; their conditions may differ.

With `COC(=O)c1ccccc1-c1c2ccc(=O)cc-2oc2c1ccc1cccc(N(C)C)c12` [Compound 8], in data set [1] (basic solution pH 12.1, 12.5 mM NaOH), the λmax em is on record as 530 nm.
Consider `COC(=O)c1ccccc1C1=c2cc3c4c(c2Oc2c1ccc1cccc(N)c21)CCC[N+]=4CCC3.[Cl-]` [Compound 13], for which the relative cellular uptake entry with Capan-1 cells [2] is “greatest uptake”. Also, the “pancreas specificity / accumulation” value with healthy CD-1 mice is listed as “diminished pancreas accumulation”. Further, the IC50 at 24 h in data set [3] was 26.1 µM. Moreover, the subcellular localization result in the data set with Capan-1 cells [4] is “extensive accumulation in the mitochondria”. In data set [1] (pH 7.4 phosphate buffer), the Stokes shift was 139 nm, the brightness is recorded as 85, the λmax em was 740 nm and the “φ (quantum yield)” value amounted to 0.66%. The compound also showed a λmax abs in data set [1] (pH 7.4 phosphate buffer) of 601 nm.
As for `COC(=O)c1ccccc1C1=c2cc3c4c(c2Oc2c1ccc1cccc(O)c21)CCC[N+]=4CCC3.[Cl-]` [Compound 11], in data set [1] (setting [7]), the Stokes shift is recorded as 39 nm, the brightness was 2314, the λmax em amounted to 624 nm and the “φ (quantum yield)” value was 15.3%. In data set [1] (setting [7]), this compound gave a λmax abs of 585 nm.
Consider `COC(=O)c1ccccc1-c1c2ccc(=N)cc-2oc2c1ccc1cccc(O)c12.Cl` [Compound 3], for which, in data set [1] (setting [7]), the Stokes shift is reported as 62 nm, the brightness is 226, the λmax em was found to be 604 nm and the “φ (quantum yield)” value was 1.14%. In data set [1] (setting [7]), the λmax abs was found to be 542 nm.
For `CN(C)c1ccc2nc3ccc(=[N+](C)C)cc-3sc2c1` [MB, methylene blue, reference compound], in the data set on healthy CD-1 mice, the “pancreas specificity / accumulation” value is “poor penetration into normal pancreas tissue; also recorded: diminished pancreas accumulation”.
Regarding `COC(=O)c1ccccc1C1=c2cc3c4c(c2Oc2c1ccc1cccc(OC)c21)CCC[N+]=4CCC3.[Cl-]` [Compound 12], the “uptake in normal pancreas tissue as compared to MB” value in the data set with healthy CD-1 mice (100 nmol systemic (MB 120 nmol)) is 4 fold. Further, the “fluorescence SBR in the pancreas vs surrounding organs” value in the data set on healthy CD-1 mice (4 h time point) is “highest and most persistent fluorescence SBR in the pancreas”. In the data set on healthy CD-1 mice, the “pancreas specificity / accumulation” value was “improved pancreas specificity”. 17.8 µM corresponded to half-maximal inhibition in data set [3] (IC50 at 24 h). The subcellular localization entry in the data set on Capan-1 cells [4] is listed as “extensive accumulation in the mitochondria”. Further, in data set [1] (pH 7.4 phosphate buffer), the Stokes shift amounted to 40 nm, the brightness turned out to be 2022, the λmax em is recorded as 622 nm and the “φ (quantum yield)” value was 11.38%. This compound also gave a λmax abs in data set [1] (pH 7.4 phosphate buffer) of 582 nm. Also, the “ex vivo staining pattern in cancerous tissue” value in data set [5] is on record as “localized in the PDAC-associated ductal epithelial cells”. Besides, the “PDAC-specific fluorescence / accumulation” value in data set [6] is reported as “Significantly more fluorescence; also recorded: significantly higher than that in the surrounding tissues”.
On to `COC(=O)c1ccccc1-c1c2ccc(=[N+](C)C)cc-2oc2c1ccc1cccc(OC)c12.[Cl-]` [Compound 6], for which, in data set [1] (pH 7.4 phosphate buffer), the Stokes shift is reported as 38 nm, the brightness was determined as 2094, the λmax em is 606 nm and the “φ (quantum yield)” value worked out at 9.32%. In addition, the λmax abs in data set [1] (pH 7.4 phosphate buffer) is 568 nm.
As for `COC(=O)c1ccccc1-c1c2ccc(=N)cc-2oc2c1ccc1cccc(N)c12.Cl` [Compound 9], in data set [1] (pH 7.4 phosphate buffer), the Stokes shift is reported as 184 nm, the brightness was 25, the λmax em was 760 nm and the “φ (quantum yield)” value is recorded as 0.18%. This compound also registered a λmax abs in data set [1] (pH 7.4 phosphate buffer) of 576 nm.

One may read the IC50 as the concentration needed to halve the response being measured. Read a high IC50 as weaker potency.

The values are drawn from paper PMC5286460 (ACS Omega, 2017).
